# Experimental data as given in patent US20220387457A1 (Qlaris Bio, Inc., priority 2020, published 2022).
# How the values were obtained:
# [1] = Toxicokinetics after escalating intravenous doses of CKLP1 in beagles; type: in vivo, beagle dog; conditions: male, beagle, dog, in vivo, iv
# Method: Two beagles (one male and one female) were intravenously injected with escalating doses of CKPL1 (0.05 mg/kg, 0.5 mg/kg, 1.5 mg/kg, 3 mg/kg, and 5 mg/kg) to assess the toxicity of CKLP1. The injection was done through the cephalic vein and CKLP1 was administered in a phosphate buffered saline solution ((0.096% sodium phosphate dibasic, 0.089% sodium dihydrogen orthophosphate monohydrate, 0.83% sodium chloride) pH 6.5±0.1 in sterile water for injection USP). The dosing schedule is shown below in Table 3.
# The following parameters and endpoints were evaluated: mortality, clinical observations, body and organ weights, and food consumption. Bioanalytical samples for toxicokinetic parameters (for both CKLP1 and leveromakalim) were collected after each dose level (days 1, 3, 8, 10, and 14) at predose, 1, 3, 6, 8, and 24 hours postdose. Animals were released from the study after completion of the bioanalytical sample collection schedule.
# Toxicokinetics (TK) were determined based on the individual exposures for each animal on each sampled study day (days 1, 3, 8, 10, and 14). […] Predose samples had no quantifiable exposure in any animal on any day, with the exception of the female dog on day 10. The predose concentration for the female dog on day 10 was excluded from the TK analysis in order to allow for estimation of the IV C0.
# [2] = Plasma pharmacokinetics, 28-day topical ophthalmic dosing in beagle dogs; conditions: dog, in vivo
# Method: In the study, dogs (3 males and 3 females) received bilateral daily topical administration of 40 μL/eye of 2.0%, 4.0%, or 8.0% as measured in mg/mL (equivalent to 0.8, 1.6, or 3.2 mg CKLP1 per eye) of CKLP1 in phosphate buffered saline. Based on an average male dog weight of 7.9 kg at the start of the study, these doses were equivalent to 0.20 mg/kg, 0.41 mg/kg, or 0.81 mg/kg and based on an average female dog weight of 6.0 kg at the start of the study, these doses were equivalent to 0.27 mg/kg, 0.53 mg/kg, or 1.07 mg/kg. Blood was collected for toxicokinetic analysis pre-dose and at 1, 2, 4, 8, 12, and 24 hours post dosing on days 1 and 28. In addition, 2 animals of each gender were allowed 336 hours (14 days) of recovery time following the final dose, at which point final blood samples were obtained.
# [3] = female, beagle, topical or ocular, 0.27 mg/kg
# [4] = female, beagle, topical or ocular, 1.07 mg/kg
# [5] = female, beagle, topical or ocular, […]
# [6] = male, beagle, topical or ocular, 0.2 mg/kg
# [7] = male, beagle, topical or ocular, 0.41 mg/kg
# [8] = male, beagle, topical or ocular, 0.81 mg/kg
smiles,measurement,setting,value
CC1(C)Oc2ccc(C#N)cc2[C@@H](N2CCCC2=O)[C@@H]1OP(=O)(O)O [CKLP1],C0,[1]; 0.5 mg/kg,3580 ng/mL
same,Cmax,[1]; 0.5 mg/kg,2600 ng/mL
same,RAUC,[1]; 0.5 mg/kg,12.8
same,Tlast,[1]; 0.5 mg/kg,24.0 h
same,Tmax,[1]; 0.5 mg/kg,1 h
same,Vd,[1]; 0.5 mg/kg,0.143 L/kg
same,clearance,[1]; 0.5 mg/kg,0.583 mL/min/kg
same,half-life,[1]; 0.5 mg/kg,2.84 h
same,λZ range,[1]; 0.5 mg/kg,3 to 24 h
same,AUC(0-inf),[1]; 1.5 mg/kg,43300 ng·h/mL
same,AUC(0-t),[1]; 1.5 mg/kg,43200 ng·h/mL
same,C0,[1]; 1.5 mg/kg,10400 ng/mL
same,Cmax,[1]; 1.5 mg/kg,7690 ng/mL
same,RAUC,[1]; 1.5 mg/kg,38.6
same,Tlast,[1]; 1.5 mg/kg,24.0 h
same,Tmax,[1]; 1.5 mg/kg,1 h
same,Vd,[1]; 1.5 mg/kg,0.146 L/kg
same,clearance,[1]; 1.5 mg/kg,0.578 mL/min/kg
same,half-life,[1]; 1.5 mg/kg,2.91 h
same,λZ range,[1]; 1.5 mg/kg,1 to 24 h
same,AUC(0-inf),[1]; 3 mg/kg,89000 ng·h/mL
same,AUC(0-t),[1]; 3 mg/kg,85100 ng·h/mL
same,C0,[1]; 3 mg/kg,18500 ng/mL
same,Cmax,[1]; 3 mg/kg,14400 ng/mL
same,RAUC,[1]; 3 mg/kg,76.0
same,Tlast,[1]; 3 mg/kg,24.0 h
same,Tmax,[1]; 3 mg/kg,1 h
same,Vd,[1]; 3 mg/kg,0.303 L/kg
same,clearance,[1]; 3 mg/kg,0.562 mL/min/kg
same,half-life,[1]; 3 mg/kg,6.22 h
same,λZ range,[1]; 3 mg/kg,6 to 24 h
same,AUC(0-inf),[1]; 5 mg/kg,160000 ng·h/mL
same,AUC(0-t),[1]; 5 mg/kg,159000 ng·h/mL
same,C0,[1]; 5 mg/kg,25900 ng/mL
same,Cmax,[1]; 5 mg/kg,22400 ng/mL
same,RAUC,[1]; 5 mg/kg,142
same,Tlast,[1]; 5 mg/kg,24.0 h
same,Tmax,[1]; 5 mg/kg,1 h
same,Vd,[1]; 5 mg/kg,0.156 L/kg
same,clearance,[1]; 5 mg/kg,0.522 mL/min/kg
same,half-life,[1]; 5 mg/kg,3.47 h
same,λZ range,[1]; 5 mg/kg,1 to 24 h
same,half-life,"[2]; beagle, mean T1/2 of CKLP1",3.32 to 6.18 h
same,half-life,"[2]; beagle, terminal elimination half-life",3 to 6 h
same,concentration at 336 h,"[2]; both sexes, beagle",< 2 ng/mL
same,"predose levels of CKLP1 on day 28, times lower than peak plasma concentrations","[2]; both, beagle",16-25 times
same,accumulation of CKLP1 on day 28 relative to day 1,[2],no accumulation
same,time of Cmax of CKLP1,[2],1 to 2 h
same,AUC0-last,[2]; [3],545 ng·h/mL
same,AUC(0-inf),[2]; [3],660 ng·h/mL
same,Cmax,[2]; [3],80.2 ng/mL
same,Tmax,[2]; [3],2 h
same,t1/2,[2]; [3],3.68 h
same,AUC(0-t),"[2]; female, beagle, topical or ocular, 0.27 mg/kg, AUC0-last",496 ng·h/mL
same,Cmax,"[2]; female, beagle, topical or ocular, 0.27 mg/kg, Cmax",55.5 ng/mL
same,half-life,"[2]; female, beagle, topical or ocular, 0.27 mg/kg, t1/2",4.12 h
same,AUC0-last,[2]; [4],1200 ng·h/mL
same,AUC(0-inf),[2]; [4],1860 ng·h/mL
same,Cmax,[2]; [4],139 ng/mL
same,Tmax,[2]; [4],2 h
same,t1/2,[2]; [4],5.15 h
same,AUC(0-t),"[2]; female, beagle, topical or ocular, 1.07 mg/kg, AUC0-last",1480 ng·h/mL
same,Cmax,"[2]; female, beagle, topical or ocular, 1.07 mg/kg, Cmax",156 ng/mL
same,half-life,"[2]; female, beagle, topical or ocular, 1.07 mg/kg, t1/2",4.92 h
same,AUC0-last,[2]; [5],1750 ng·h/mL
same,Tmax,[2]; [5],2 h
same,half-life,"[2]; female, beagle, topical or ocular, […], t1/2",6.18 h
same,AUC0-last,[2]; [6],272 ng·h/mL
same,AUC(0-inf),[2]; [6],299 ng·h/mL
same,Cmax,[2]; [6],47.0 ng/mL
same,Tmax,[2]; [6],1 h
same,t1/2,[2]; [6],3.44 h
same,AUC(0-t),"[2]; male, beagle, topical or ocular, 0.2 mg/kg, AUC0-last",231 ng·h/mL
same,Cmax,"[2]; male, beagle, topical or ocular, 0.2 mg/kg, Cmax",36.5 ng/mL
same,half-life,"[2]; male, beagle, topical or ocular, 0.2 mg/kg, t1/2",3.69 h
same,AUC0-last,[2]; [7],381 ng·h/mL
same,AUC(0-inf),[2]; [7],571 ng·h/mL
same,Cmax,[2]; [7],57.3 ng/mL
same,Tmax,[2]; [7],1 h
same,t1/2,[2]; [7],3.32 h
same,AUC(0-t),"[2]; male, beagle, topical or ocular, 0.41 mg/kg, AUC0-last",520 ng·h/mL
same,Cmax,"[2]; male, beagle, topical or ocular, 0.41 mg/kg, Cmax",73.7 ng/mL
same,half-life,"[2]; male, beagle, topical or ocular, 0.41 mg/kg, t1/2",4.26 h
same,AUC0-last,[2]; [8],1260 ng·h/mL
same,AUC(0-inf),[2]; [8],1580 ng·h/mL
same,Tmax,[2]; [8],2 h
same,t1/2,[2]; [8],5.08 h
same,AUC(0-t),"[2]; male, beagle, topical or ocular, 0.81 mg/kg, AUC0-last",1520 ng·h/mL
same,Cmax,"[2]; male, beagle, topical or ocular, 0.81 mg/kg, CKLP1, Male, topical 8.0% CKLP1 daily, Day 1, read-out: Cmax",166 ng/mL
same,Cmax,"[2]; male, beagle, topical or ocular, 0.81 mg/kg, CKLP1, Male, topical 8.0% CKLP1 daily, Day 28, read-out: Cmax",147 ng/mL
same,half-life,"[2]; male, beagle, topical or ocular, 0.81 mg/kg, t1/2",4.82 h
same,Cmax,"[2]; male, beagle, topical or ocular, 8 %, day 28, males, read-out: mean Cmax at NOAEL",147 ng/mL
same,AUC(0-t),"[2]; male, beagle, topical or ocular, 8.0%, day 28, males, read-out: mean AUC Tlast at NOAEL",1260 ng·h/mL
